# Results: patent publication US8653120B2, “Method for treatment of chronic neuropathic pain” (Apkarian Technologies LLC, priority 2004, dated 2014)
# What was measured:
# Assay type in all cases: in vivo
# [1] = system: Rats with mechanically injured paws; test: Rat model of neuropathic pain due to injury: tolerance to weight applied to the injured paw
# Method: Rats with mechanically injured paws were used as models of neuropathic pain. In the test, a weight is applied to the injured paw, and the pain response is assessed. […] Rats (groups or 8-10 rats per treatment) were treated with oral saline (control) or 3, 10 or 30 mg/kg of D-cycloserine for a period of two weeks. Pain was monitored from two days before the treatment commenced for a period of 35 days total. […] The open squares represent the control. The black squares represent 30 mg/kg dosage. The two intermediate lines are 3 (lighter) and 10 mg/kg (darker). […] The black squares are the retreated animals, the white squares are the controls and the intermediate colored squares are animals treated for the first time with 30 mg/kg. […] Thus, treatment of chronic pain requires a treatment regimen that extends over a period of time, for example at least one week, sufficient to provide a benefit to the individual being treated.
# [2] = system: Rats with mechanically injured paws; test: Rat model of neuropathic pain due to injury: test based on paw position; settings: same test animals as FIGS. 2A-C; FIGS. 3A-C
# Method: Rats with mechanically injured paws were used as models of neuropathic pain. In the test, a weight is applied to the injured paw, and the pain response is assessed. […] Rats (groups or 8-10 rats per treatment) were treated with oral saline (control) or 3, 10 or 30 mg/kg of D-cycloserine for a period of two weeks. Pain was monitored from two days before the treatment commenced for a period of 35 days total. FIGS. 3A-C show results for the same test animals as FIGS. 2A-C, except using a test based on paw position as opposed to tolerance to applied weight. In this case, lower numbers reflect lesser pain.
# [3] = system: rats treated with cisplatin; test: Rat model of cisplatin-induced neuropathy: mechanical sensitivity
# Method: To model drug-induced pain, rats were treated with cisplatin (2 mg/kg), a common chemotherapy drug. As shown graphically in FIG. 4, after 14 days of treatment, the rats had developed mechanical sensitivity. […] In contrast, sensitivity was maintained in rats treated with a saline control (white bars). Thus, in rat models of cisplatin-induced neuropathy, pain behavior decreases 50% in two weeks in animals treated with cycloserine compared with animals treated with placebo.
# [4] = system: rat exhibiting mechanical sensitivity; test: Analgesia after infusion into different parts of the rat brain; settings: 50 μg infusion, FIG. 5
# [5] = 30 mg/kg, longer treatment period, FIG. 2C
compound,measurement,setting,value
N[C@@H]1CON=C1O [D-cycloserine],analgesic effectiveness on re-treatment vs first treatment,"[1]; 30 mg/kg re-treatment starting 1 day after end of the 35 day test, FIG. 2B",about twice as great
same,post-treatment duration of analgesia after longer treatment,[1]; [5],significant analgesic affect being observed 30 days after cessation of treatment
same,time course of analgesic effect with longer treatment,[1]; [5],"analgesic effect increases with treatment for a period of three weeks, after which a plateau is reached"
same,analgesic effect of acute administration on neuropathic behavior,[1]; acute oral or intrathecal administration,only minimal analgesic effects
same,post-treatment analgesia,"[1]; after end of two-week oral treatment, FIG. 2A",long-lasting analgesia
same,day of return to initial neuropathy levels,"[1]; after two-week oral treatment, FIG. 2A",35 days
same,analgesic response during treatment (tolerated weight on injured paw),"[1]; oral 3, 10 or 30 mg/kg for two weeks, vs saline, FIG. 2A",generally dose-dependent response
same,pain measured by paw position (lower numbers reflect lesser pain),[2],indicates the effectiveness of the D-cycloserine
same,decrease of pain behavior compared with placebo,"[3]; cisplatin-induced neuropathy, two weeks of treatment",50%
same,effect on cisplatin-induced mechanical sensitivity,"[3]; oral 30 mg/kg, two treatments per day, 14 days, with cisplatin 2 mg/kg, FIG. 4",partial reversal of the mechanical sensitivity
same,analgesia after infusion into medial prefrontal cortex,[4]; vs saline infusion,result in analgesia
same,analgesia after infusion into bilateral amygdala,[4],result in analgesia
same,analgesia after infusion into visual cortex,[4],Only medial prefrontal cortex and amygdala infusions result in analgesia
